Test results: patent publication US20140314787A1, “Treatment for neurodegenerative diseases” (NOVARTIS FORSCHUNGSSTIFTUNG, ZWEIGNIEDERLASSUNG, FRIEDRICH …, priority 2011, published 2014)

Assays:
VCP [1] = target: T1, VCP (Homo sapiens, UniProt P55072); details: literature (Chou T F et al. 2011); cited from earlier work
[2] = tested on: FSOD mice (mutant SOD1(G93A)); assay: climb test of motor performance in FSOD mice; type: in vivo; details: for motor performance: figure legend (FIG. 9, FIG. 10)
Experimental: Climb test: Neurodegenerative status of the mice was tested using a climb test device developed by some of the inventors. This device is based on a flappable wire meshwork platform (10×10 cm) suspended from one corner by a rigid boom. The platform is suspended about 40 cm above a surface. The platform is fully open and the test is performed in ambient light. During the test, mice are prevented of climbing the boom by a transparent plastic disk. For the performance of the test, mice were gently transferred to the platform and allowed to explore it for 2 minutes. […] As soon as the mice reached the upper surface of the grid (all four limbs on the same side), the grid was gently flipped over so that the mice were not be allowed to rest. The number of performed climbs in the test period was counted, the test period being 11 minutes (5 min and 30 min variants have been tested as well). The climb movement to be performed by the mice involves a forceful yet brief push with fore- and hind-limbs, thus mimicking short-lived but powerful movements that are known to recruit fast motoneurons.
At day P27, mice were treated either with Eer-I (1 μg/g in 150 mM NaCl, s.c., daily) or with saline. Mice were tested at P29 and at P32.
On day P47 treatment was stopped and the mice were tested 2 days later.
Treatment dose was 1 μg/g in 150 mM NaCl, s.c., daily. Mice were treated and tested at baseline (p32), and thereafter tested in the climb test at 38, 43, 56 days of age.

[3] = tested on: FSOD mice (mutant SOD1(G93A)); assay: grid test of motor performance / muscle strength in FSOD mice; type: in vivo
Experimental: Motor performance was assessed by grid test, a standard task for the quantification of muscle strength and neurological impairment.

VCP [4] = assay: VCP immunostaining intensity in lumbar spinal cord motoneurons; type: in vivo, mice
Experimental: After washing in PBS, lumbar (L2-L5) spinal cord was cryoprotected overnight in 30% sucrose. Lumbar spinal cord was embedded in OCT and sectioned at 50 μm. Sections were blocked in PBS-3% BSA −0.3% Triton X 100, and incubated double-overnight at 4 C in the same buffer plus anti VCP monoclonal antibody (Affinity Bioreagents) diluted 1:10,000 and polyclonal anti VAChT (Sigma) 1:1000. Sections were then briefly washed with PBS and incubated for 120 min at RT with goat-anti-rabbit (Alexa 647, Invitrogen) or goat-anti-mouse (Alexa 488, Invitrogen). Confocal images were acquired using an Zeiss LSM700 microscope, fitted with a 20×air objective. Images were processed using Imaris software. For the analysis of VCP labeling intensities, data were acquired with identical confocal settings, ensuring that signals at the brightest cells were not saturated, and that background levels outside clusters were still detectable. Images were then analyzed quantitatively using Image-Pro 5 software (Media Cybernetics). Signal intensities were acquired within areas inside cells, excluding areas lacking signal; background levels outside cells were subtracted from these values.

[5] = body weight recording in treated mice; type: in vivo
Experimental: Body weight was recorded at P45, P65, P85 and then at 5-7 days intervals. Five mice per group were followed, representative individuals are shown.

VCP [6] = target: T1, VCP; details: literature (Wang Q et al. 2008, 2010); cited from earlier work
[7] = tested on: Mutant SOD1(G93A) transgenic mice; assay: survival of mutant SOD1(G93A) transgenic mice; type: in vivo
Experimental: Survival was determined up to the day of death or euthanasia (according to the termination criteria of a righting time >30 sec).

[8] = 1 μg/g s.c. daily from weaning (P20), vs untreated
[9] = FSOD mice treated from P20, s.c. daily
[10] = FSOD mice treated from P63, s.c. daily

T1 sequence (P55072 whole entry): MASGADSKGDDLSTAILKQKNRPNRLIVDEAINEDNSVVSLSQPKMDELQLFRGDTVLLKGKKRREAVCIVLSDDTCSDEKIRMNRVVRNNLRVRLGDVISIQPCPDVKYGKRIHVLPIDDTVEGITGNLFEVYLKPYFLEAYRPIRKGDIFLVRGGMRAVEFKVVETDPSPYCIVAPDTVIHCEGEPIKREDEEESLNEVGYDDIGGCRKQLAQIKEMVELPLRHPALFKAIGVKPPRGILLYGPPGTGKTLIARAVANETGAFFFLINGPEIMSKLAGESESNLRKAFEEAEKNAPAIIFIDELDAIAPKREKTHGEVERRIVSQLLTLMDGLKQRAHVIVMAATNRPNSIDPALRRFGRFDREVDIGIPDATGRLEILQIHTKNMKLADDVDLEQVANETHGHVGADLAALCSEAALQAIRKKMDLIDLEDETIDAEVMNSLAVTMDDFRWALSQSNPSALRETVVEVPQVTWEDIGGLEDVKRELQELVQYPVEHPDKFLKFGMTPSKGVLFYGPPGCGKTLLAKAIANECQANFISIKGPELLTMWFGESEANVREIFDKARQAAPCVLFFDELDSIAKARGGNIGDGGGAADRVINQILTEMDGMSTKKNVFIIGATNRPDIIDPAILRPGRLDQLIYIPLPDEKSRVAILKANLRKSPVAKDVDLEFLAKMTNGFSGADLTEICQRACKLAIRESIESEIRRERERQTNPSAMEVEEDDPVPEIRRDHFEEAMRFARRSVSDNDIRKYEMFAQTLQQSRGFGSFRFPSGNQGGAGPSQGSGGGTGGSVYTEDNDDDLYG

## O=[N+]([O-])C=Cc1ccc2c(c1)OCO2 [Syk-inhibitor III, 3,4-Methylenedioxy-β-nitrostyrene]
VCP [1]
  VCP inhibition (mode): substantial efficacy as an irreversible inhibitor of the D2 ATPase site on VCP
[2]; FSOD mice
  motor performance: improves motor performance
[2]; two mice, 1 μg/g s.c. daily, baseline p32, tested at 38, 43, 56 days of age
  performance in the climb test: markedly improved and reached the range of performance for WT mice

## CC1(C)C(N(O)C(=O)Nc2ccc(Cl)cc2)N(c2ccc(Cl)cc2)C(=O)N1CC(=O)NN=CC=Cc1ccc([N+](=O)[O-])o1 (stereo not shown) [Eer-I, 3-(4-Chlorophenyl)-4-[[[(4-chlorophenyl)amino]carbonyl]hydroxyamino]-5,5-dimethyl-2-oxo-1-imidazolidineacetic acid 2-[3-(5-nitro-2-furanyl)-2-propen-1-ylidene]hydrazide]
[3]; 1 μg/g s.c. daily from P63
  grid test performance soon after beginning of treatment: fast improvement in performance
  grid test performance vs untreated counterparts: performed significantly better than their untreated counterparts
[3]; [8]
  decline in muscle strength over time (grid test): significantly slower decline
  grid test performance at the earliest time point: better performance
[3]; FIG. 3 legend
  motor disability: delays motor disability
VCP [4]; FSOD mice treated with Eer-I vs FSOD and WT controls, lumbar spinal cord
  average cytoplasmic VCP staining intensity in motoneurons: significantly reduced (to an extent comparable with WT)
VCP [4]; FSOD mice, FIG. 11 legend
  VCP upregulation: reverses VCP upregulation
[5]; FIG. 5 legend
  body weight loss: delays body weight loss
[5]; 1 μg/g s.c. daily from P63
  bodyweight of FSOD mice: stabilized at a level lower than the littermates treated from weaning
[5]; 1 μg/g s.c. daily from weaning (P20)
  bodyweight of FSOD mice: stable bodyweight until day P140-145
[5]; wild type mice, 1 μg/g s.c. daily
  body weight of wild type mice: expected progressive increase in body weight
[5]; wild type mice, 1 μg/g s.c. daily, from body weight
  overt toxicity of the treatment: lack of overt toxicity
VCP [6]
  degradation of target misfolded proteins whose translocation and disposal is dependent upon VCP: prevent the degradation of target misfolded proteins
[7]; 1 μg/g s.c. daily since weaning (P20), n=7 per group
  survival vs untreated mutant mice: survived significantly longer
[7]; FSOD mice, FIG. 6 legend
  survival: prolongs FSOD mice survival
[2]; FSOD mice (n=4), 1 μg/g s.c. daily from P18, tested at P27, P37 and P47
  climb performance: comparable to wt mice
[2]; FSOD mice (n=4), after withdrawal
  climb performance upon resumption of the treatment: quickly improved
[2]; FSOD mice (n=4), resumption of treatment after withdrawal
  treatment time until performance comparable with that before withdrawal: 2 to 5 days
[2]; FSOD mice (n=4), treatment stopped on P47, tested at P49
  climb performance after 2 days of withdrawal of treatment: sharp drop in performance, down to a level comparable with that of untreated FSOD mice of the same age
[2]; [9]
  climb test performance (climb scores): markedly preserved performance, with climb scores comparable with WT mice
  duration of stable climb test performance: stable up to day P65
[2]; [10]
  climb score at day P85: returning in the range of untreated FSOD mice
  climb test performance: marked but transient improvement in performance
  increase of climb score: up to four-fold
[2]; FSOD mice, 1 μg/g s.c. daily from P27
  climb test performance after 5 days of treatment: level comparable with wt
[2]; FSOD mice, 1 μg/g s.c. daily from P27, tested at P29 and P32, vs saline
  climb test performance: marked improvement in performance
[2]; FSOD mice, FIG. 4 legend
  performance in the climb test: markedly improve
[2]; FSOD mice, FIG. 7 legend
  performance in the climb test: quickly restores performance

## c1ccc(CNc2nc(NCc3ccccc3)c3ccccc3n2)cc1 [DBEQ, N^2,N^4-Dibenzylquinazoline-2,4-diamine]
VCP [1]
  VCP inhibition (mode): reversible, ATP-competitive direct VCP inhibitor
[2]; FSOD mice
  motor performance: improves motor performance
[2]; three FSOD mice, 1 μg/g s.c. daily after day 29, tested at P31, P34, 37 and 45
  motor performance in the climb test: progressive improvement in motor performance reaching the range of wt mice
